Here are results for 4 compounds from patent US20030186980A1, “Anthelmintic agents for preventing parasitic infections in humans and animals III” (priority 2000, published 2003).

Structures are written as SMILES.

For assay [1], the system named is cercariae of Schistosoma mansoni. The conditions noted are these: topical, monkeys; Bruce et al. 1992; cited from earlier work.
For assay [2] the test system is unchanged. The conditions noted are these: topical; Salafsky et al. 1998; cited from earlier work.
Assay [3] has as its system Schistosoma mansoni cercariae. Nature of the assay: Activity against Schistosoma mansoni cercariae (survival/mobility observed with a stereomagnifier). Further details: key: no effect during the entire test period of 120 minutes; 1: weak effect (the cercariae have a strongly reduced mobility); 2: good effect (the cercariae are only slightly mobile and bent); 3: full effect (the cercariae are completely immobile). Conditions: 500 μl/l final concentration of active compound; PEG300/aquarium water; test period of 120 minutes; about 100 to 150 cercariae per batch. As for the experimental part: [500 μl/l final concentration of the active compounds] Snails (Biomphalaria glabrata) were infected by incubating each of them with 8 miracidia in 10 ml of water overnight. About 6 to 9 weeks after the infection, cercariae were obtained by irradiating the snails, which had been kept in darkness, with light, followed by collection of the swarming cercariae within 2 hours.
Such an amount of cercariae-containing water (1 or 2 ml, see below) was added to the test batches that each batch contained about 100 to 150 cercariae.
5 μl of active compound were mixed thoroughly with 25 μl of PEG300. 9 ml of aquarium water was then added, and the batch was shaken vigorously. After (delayed) addition of 1 ml of cercariae suspension, survival of the cercariae was in each case observed immediately using a stereomagnifier.

Assay [4] deals with cercariae of Schistosoma mansoni. Conditions: Fripp and Armstrong 1973; cited from earlier work.

`O=C(Nc1ccc([N+](=O)[O-])cc1Cl)c1cc(Cl)ccc1O` [Niclosamide]: the “action against the penetration of cercariae” value in assay [1] was “acts against the penetration of cercariae”. Take `CCN(CC)C(=O)c1cccc(C)c1` [N,N-Diethyl-m-toluamide (DEET), N,N-Diethyl-m-toluamide]: in assay [2], the “action against cercariae of Schistosoma mansoni” value is reported as “acts against cercariae”. Take `CCC(C)N(C)C(=O)N1CC(C)OC(C)C1` (stereo not shown): the “activity rating against Schistosoma mansoni cercariae” value in assay [3] worked out at 1. Turning to `Oc1c(Cl)cc(Cl)c(Cl)c1Cc1c(O)c(Cl)cc(Cl)c1Cl` [hexachlorophene], the “effect on cercariae of Schistosoma mansoni” value in assay [4] is on record as “lethal effect”.
